Test results taken from ChEMBL document CHEMBL3046855, “Chemical control of Prosopis farcta (Banks and Sol.) Macbride in the Jordan Valley” (2007).

Experiments:
Format in all cases: functional
Prosopis farcta [1] = assay: Herbicidal activity against Prosopis farcta assessed as shoot fresh weight at 1000 l/ha applied once followed by harvest measured after vegetative regrowth (reference value: 2.062 metric tons/ha)
Prosopis farcta [2] = assay: Herbicidal activity against Prosopis farcta assessed as shoot fresh weight at 1000 l/ha applied once (reference value: 1.72 metric tons/ha)
Prosopis farcta [3] = assay: Herbicidal activity against Prosopis farcta assessed as shoot dry weight at 1000 l/ha applied once followed by harvest measured after vegetative regrowth (reference value: 1.593 metric tons/ha)
Prosopis farcta [4] = assay: Herbicidal activity against Prosopis farcta assessed as shoot dry weight at 1000 l/ha applied twice followed by harvest measured after vegetative regrowth (reference value: 2.784 metric tons/ha)
Prosopis farcta [5] = assay: Herbicidal activity against Prosopis farcta assessed as shoot fresh weight at 1000 l/ha applied twice (reference value: 4.18 metric tons/ha)
Prosopis farcta [6] = assay: Herbicidal activity against Prosopis farcta assessed as shoot fresh weight at 1000 l/ha applied twice followed by harvest measured after vegetative regrowth (reference value: 3.53 metric tons/ha)
Prosopis farcta [7] = assay: Herbicidal activity against Prosopis farcta assessed as shoot dry weight at 1000 l/ha applied twice (reference value: 1.528 metric tons/ha)
Prosopis farcta [8] = assay: Herbicidal activity against Prosopis farcta assessed as shoot dry weight at 1000 l/ha applied once (reference value: 0.833 metric tons/ha)

SMILES | Activity (Prosopis farcta [1]) | Activity (Prosopis farcta [2]) | Activity (Prosopis farcta [3]) | Activity (Prosopis farcta [4]) | Activity (Prosopis farcta [5]) | Activity (Prosopis farcta [6]) | Activity (Prosopis farcta [7]) | Activity (Prosopis farcta [8])
CCCCC(CC)COC(=O)COc1ccc(Cl)cc1Cl (stereo unspecified) | 0.277 MT/ha | 1.33 MT/ha | 0.213 MT/ha | 0.063 MT/ha | 0.8 MT/ha | 0.1 MT/ha | 0.365 MT/ha | 0.625 MT/ha
CNC.O=C(O)COc1ccc(Cl)cc1Cl [2,4-D-Dimethylammonium] | 0.323 MT/ha | 1.27 MT/ha | 0.144 MT/ha | 0.511 MT/ha | 0.8 MT/ha | 0.58 MT/ha | 0.345 MT/ha | 0.593 MT/ha
O=C(O)CNCP(=O)(O)O [GLYPHOSATE] | 0.432 MT/ha | 1.05 MT/ha | 0.317 MT/ha | 0.976 MT/ha | 0.71 MT/ha | 1.23 MT/ha | 0.32 MT/ha | 0.491 MT/ha
Cc1cc(Cl)ccc1OC(C)C(=O)O (stereo unspecified) [MECOPROP] | 0.655 MT/ha | 0.9 MT/ha | 0.527 MT/ha | 1.125 MT/ha | 0.93 MT/ha | 1.46 MT/ha | 0.403 MT/ha | 0.423 MT/ha
CCOc1cc(Oc2ccc(C(F)(F)F)cc2Cl)ccc1[N+](=O)[O-] [OXYFLUORFEN] | 4.511 MT/ha | 0.6 MT/ha | 3.481 MT/ha | 1.147 MT/ha | 0.96 MT/ha | 1.47 MT/ha | 0.479 MT/ha | 0.26 MT/ha
C[n+]1ccc(-c2cc[n+](C)cc2)cc1 [PARAQUAT] | 0.757 MT/ha | 1.27 MT/ha | 0.647 MT/ha | 0.764 MT/ha | 0.93 MT/ha | 0.91 MT/ha | 0.404 MT/ha | 0.593 MT/ha
O=C(O)COc1nc(Cl)c(Cl)cc1Cl [TRICLOPYR] | 0.301 MT/ha | 1.21 MT/ha | 0.231 MT/ha | 0.05 MT/ha | 1.07 MT/ha | 0.05 MT/ha | 0.461 MT/ha | 0.567 MT/ha
